This passage reports Kd results from publication PMC8371461 (Frontiers in Pharmacology, 2021).

Where two headings read alike, the source gives them in different places.

Holding throughout (experiment): Kd select analysis (DiscoverX)
What all share (format): binding

The target of one assay is T1, ANKK1 (Homo sapiens, UniProt Q8NFD2).
T1 construct: purchased DiscoverX (KINOMEscan)
T1 sequence (Q8NFD2 1-765): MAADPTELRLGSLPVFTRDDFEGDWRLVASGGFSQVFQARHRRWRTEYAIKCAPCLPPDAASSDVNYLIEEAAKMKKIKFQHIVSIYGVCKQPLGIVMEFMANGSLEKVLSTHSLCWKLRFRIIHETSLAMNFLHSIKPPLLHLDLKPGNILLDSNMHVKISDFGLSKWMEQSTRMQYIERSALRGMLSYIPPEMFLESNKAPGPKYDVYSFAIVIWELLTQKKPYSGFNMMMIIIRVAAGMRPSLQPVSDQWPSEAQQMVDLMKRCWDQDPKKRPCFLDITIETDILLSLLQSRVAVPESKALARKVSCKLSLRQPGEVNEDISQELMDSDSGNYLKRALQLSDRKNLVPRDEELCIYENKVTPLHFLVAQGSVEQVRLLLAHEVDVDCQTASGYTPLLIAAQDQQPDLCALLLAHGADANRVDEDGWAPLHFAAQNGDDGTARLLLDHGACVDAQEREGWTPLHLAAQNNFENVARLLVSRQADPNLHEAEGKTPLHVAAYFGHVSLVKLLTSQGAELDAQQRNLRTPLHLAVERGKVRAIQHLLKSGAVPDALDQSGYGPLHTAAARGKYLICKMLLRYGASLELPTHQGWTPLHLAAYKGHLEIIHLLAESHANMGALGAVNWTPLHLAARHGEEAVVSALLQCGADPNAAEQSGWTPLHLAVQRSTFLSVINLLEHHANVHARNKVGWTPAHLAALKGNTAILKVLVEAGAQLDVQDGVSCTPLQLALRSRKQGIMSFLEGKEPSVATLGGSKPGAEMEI
The procedure: (§1) Hits are identified by an ultra-sensitive quantitative PCR detecting the specific DNA tag linked to each kinase (Supplementary Figure S2). The drug is used at a concentration of 10 µM and results are expressed as the percentage of signal (kinase PCR detection) with respect to DMSO control conditions. Thirteen hits were identified, with a signal reduction ranging from 0 to 27% (Table 3). Full raw data are presented in Supplementary Table S4. Interactions between 0 and 20% of reduction were considered to be the most significant ones. […] A sub-micromolar affinity (Kd<1 µM) was only seen with two PIKs (PIP4K2C, PI4KB) and GAK (Table 4). Inhibitions curves from these compounds are shown in Supplementary Figure S3.

In a further assay the target is T2, GAK (Homo sapiens, UniProt O14976).
T2 construct: T7 phage fusion (kinase-tagged phage); purchased DiscoverX; host or cells: BL21-derived E. coli (T7 phage)
T2 sequence (O14976 1-1311): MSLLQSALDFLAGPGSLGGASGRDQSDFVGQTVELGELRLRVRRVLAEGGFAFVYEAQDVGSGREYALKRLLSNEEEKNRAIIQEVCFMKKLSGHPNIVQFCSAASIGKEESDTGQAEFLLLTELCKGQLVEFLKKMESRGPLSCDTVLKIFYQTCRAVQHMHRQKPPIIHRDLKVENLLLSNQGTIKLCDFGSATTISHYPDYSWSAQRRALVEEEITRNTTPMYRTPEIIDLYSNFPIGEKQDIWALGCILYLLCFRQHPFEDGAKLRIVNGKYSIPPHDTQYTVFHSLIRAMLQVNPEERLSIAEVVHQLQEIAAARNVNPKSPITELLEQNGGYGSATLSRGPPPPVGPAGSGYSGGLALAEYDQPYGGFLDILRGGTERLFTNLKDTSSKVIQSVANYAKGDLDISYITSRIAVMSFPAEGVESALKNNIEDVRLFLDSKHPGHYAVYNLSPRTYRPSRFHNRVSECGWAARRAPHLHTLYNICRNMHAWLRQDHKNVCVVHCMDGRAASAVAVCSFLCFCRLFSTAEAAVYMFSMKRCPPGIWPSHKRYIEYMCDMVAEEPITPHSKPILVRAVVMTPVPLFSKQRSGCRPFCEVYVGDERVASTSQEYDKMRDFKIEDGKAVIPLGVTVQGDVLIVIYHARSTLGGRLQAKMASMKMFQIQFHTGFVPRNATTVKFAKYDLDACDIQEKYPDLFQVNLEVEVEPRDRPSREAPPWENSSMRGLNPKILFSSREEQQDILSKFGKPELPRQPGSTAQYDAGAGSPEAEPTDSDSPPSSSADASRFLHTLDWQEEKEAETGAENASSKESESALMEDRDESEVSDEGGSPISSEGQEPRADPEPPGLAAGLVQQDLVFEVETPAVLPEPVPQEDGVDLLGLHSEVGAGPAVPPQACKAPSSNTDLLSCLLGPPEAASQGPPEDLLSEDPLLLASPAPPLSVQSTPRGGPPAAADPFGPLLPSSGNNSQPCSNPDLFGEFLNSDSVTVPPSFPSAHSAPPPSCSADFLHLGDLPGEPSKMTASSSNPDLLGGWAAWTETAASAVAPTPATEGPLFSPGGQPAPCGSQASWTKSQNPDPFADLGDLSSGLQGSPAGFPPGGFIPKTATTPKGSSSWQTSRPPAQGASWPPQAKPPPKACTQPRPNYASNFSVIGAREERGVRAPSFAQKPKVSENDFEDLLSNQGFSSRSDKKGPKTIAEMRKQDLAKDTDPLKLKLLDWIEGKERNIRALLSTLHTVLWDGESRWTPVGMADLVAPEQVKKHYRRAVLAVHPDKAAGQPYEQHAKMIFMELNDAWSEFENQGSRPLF
The procedure: as §1

Another assay concerns the target T3, MKNK2 (Homo sapiens, UniProt Q9HBH9).
T3 construct: purchased DiscoverX (KINOMEscan)
The method, then:
as §1

Another assay concerns the target T4, PI4KB (Homo sapiens, UniProt Q9UBF8).
T4 construct: T7 phage fusion (kinase-tagged phage); purchased DiscoverX; host or cells: BL21-derived E. coli (T7 phage)
The procedure: as §1

For another assay, the target named is T5, PIP4K2C (Homo sapiens, UniProt Q8TBX8).
T5 construct: T7 phage fusion (kinase-tagged phage); purchased DiscoverX; host or cells: BL21-derived E. coli (T7 phage)
T5 sequence (Q8TBX8 whole entry, the tested form may be a part): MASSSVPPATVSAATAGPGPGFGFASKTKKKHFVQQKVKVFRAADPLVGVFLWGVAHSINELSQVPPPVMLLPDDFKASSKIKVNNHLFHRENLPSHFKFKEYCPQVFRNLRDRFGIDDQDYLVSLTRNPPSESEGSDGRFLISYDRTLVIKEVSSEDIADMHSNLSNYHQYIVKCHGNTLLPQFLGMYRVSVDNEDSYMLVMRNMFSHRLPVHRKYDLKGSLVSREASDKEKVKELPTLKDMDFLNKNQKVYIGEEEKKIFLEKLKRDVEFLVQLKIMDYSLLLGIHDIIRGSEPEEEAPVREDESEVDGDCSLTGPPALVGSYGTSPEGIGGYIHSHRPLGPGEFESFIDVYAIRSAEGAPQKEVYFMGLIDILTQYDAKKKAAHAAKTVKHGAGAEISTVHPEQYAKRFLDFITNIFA
The procedure: as §1

For a further assay, the target named is T6, RIOK2 (Homo sapiens, UniProt Q9BVS4).
T6 construct: T7 phage fusion (kinase-tagged phage); purchased DiscoverX; host or cells: BL21-derived E. coli (T7 phage)
T6 sequence (Q9BVS4 whole entry, the tested form may be a part): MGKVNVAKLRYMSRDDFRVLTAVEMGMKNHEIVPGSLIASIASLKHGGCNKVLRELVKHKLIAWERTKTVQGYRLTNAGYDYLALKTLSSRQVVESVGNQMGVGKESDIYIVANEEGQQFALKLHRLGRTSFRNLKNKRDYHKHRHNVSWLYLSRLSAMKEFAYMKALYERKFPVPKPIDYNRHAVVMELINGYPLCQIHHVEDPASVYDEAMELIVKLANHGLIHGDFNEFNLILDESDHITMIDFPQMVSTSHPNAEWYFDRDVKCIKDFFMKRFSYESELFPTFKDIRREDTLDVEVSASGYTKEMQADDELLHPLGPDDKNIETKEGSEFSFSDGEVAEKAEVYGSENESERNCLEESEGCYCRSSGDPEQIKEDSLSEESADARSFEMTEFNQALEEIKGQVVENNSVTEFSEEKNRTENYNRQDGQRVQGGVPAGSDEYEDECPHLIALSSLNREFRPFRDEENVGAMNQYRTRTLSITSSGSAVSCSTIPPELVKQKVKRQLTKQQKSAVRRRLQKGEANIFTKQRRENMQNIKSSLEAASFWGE
The procedure:
as §1

Setting [1] is: sub-micromolar affinity, read-out: Kd.

T4 sequence (Q9UBF8 whole entry, the tested form may be a part): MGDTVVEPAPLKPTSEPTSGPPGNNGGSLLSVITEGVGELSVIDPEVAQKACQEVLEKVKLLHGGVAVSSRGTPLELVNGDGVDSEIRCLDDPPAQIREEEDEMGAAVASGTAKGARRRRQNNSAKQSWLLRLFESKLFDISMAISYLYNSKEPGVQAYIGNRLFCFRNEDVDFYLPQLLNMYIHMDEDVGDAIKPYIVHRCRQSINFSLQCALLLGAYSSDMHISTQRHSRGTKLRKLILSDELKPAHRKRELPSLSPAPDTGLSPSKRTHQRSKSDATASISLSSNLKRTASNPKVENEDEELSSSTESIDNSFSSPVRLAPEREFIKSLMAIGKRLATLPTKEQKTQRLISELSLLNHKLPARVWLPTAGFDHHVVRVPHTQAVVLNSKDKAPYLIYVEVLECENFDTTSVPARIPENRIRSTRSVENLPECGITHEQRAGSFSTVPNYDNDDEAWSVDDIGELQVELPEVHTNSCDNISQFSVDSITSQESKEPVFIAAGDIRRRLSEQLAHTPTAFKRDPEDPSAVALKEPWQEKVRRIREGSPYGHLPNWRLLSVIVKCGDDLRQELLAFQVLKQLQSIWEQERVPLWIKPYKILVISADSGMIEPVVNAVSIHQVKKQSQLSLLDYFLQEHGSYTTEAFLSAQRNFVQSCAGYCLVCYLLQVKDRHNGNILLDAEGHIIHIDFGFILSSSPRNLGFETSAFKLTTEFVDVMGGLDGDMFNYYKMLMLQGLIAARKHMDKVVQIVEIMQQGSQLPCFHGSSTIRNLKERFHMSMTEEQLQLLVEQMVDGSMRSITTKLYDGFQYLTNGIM
T3 sequence (Q9HBH9 whole entry): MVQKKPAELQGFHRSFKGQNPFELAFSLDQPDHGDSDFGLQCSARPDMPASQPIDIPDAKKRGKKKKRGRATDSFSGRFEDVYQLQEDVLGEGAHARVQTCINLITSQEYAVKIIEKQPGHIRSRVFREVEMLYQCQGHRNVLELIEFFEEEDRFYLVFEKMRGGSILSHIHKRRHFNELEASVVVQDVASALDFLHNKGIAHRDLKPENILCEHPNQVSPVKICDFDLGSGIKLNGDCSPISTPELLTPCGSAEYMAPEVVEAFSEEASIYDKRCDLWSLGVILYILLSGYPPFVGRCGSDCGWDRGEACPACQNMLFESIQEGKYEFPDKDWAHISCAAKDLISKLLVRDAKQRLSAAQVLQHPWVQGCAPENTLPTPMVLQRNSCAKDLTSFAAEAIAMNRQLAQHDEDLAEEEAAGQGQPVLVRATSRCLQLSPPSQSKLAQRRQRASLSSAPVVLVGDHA

For the compound `Nc1ccc(N=Nc2ccccc2)c(N)n1` [phenazopyridine, 2,6-diamino-3-(phenylazo)pyridine], the Kd (commonly the concentration at which binding is half-saturated) at ANKK1 is 21 µM; on GAK (Phenazopyridine Kd (nM)), 760 nM; on GAK (setting [1]), < 1000 nM; on MKNK2, 2.1 µM; on PI4KB (Phenazopyridine Kd (nM)), 730 nM; on PI4KB (setting [1]) it was < 1000 nM. For the same compound, the Kd on PIP4K2C (Phenazopyridine Kd (nM)) was 540 nM; at PIP4K2C (setting [1]), < 1000 nM; on RIOK2, 1 µM.
